Among the data in PubChem BioAssay (NCI) are GI50 and TGI values, retold here.

Where “and” joins values, the source holds several entries; their conditions need not be identical. Identical values can stand only once.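 Briefly, cells in 96-well plates were exposed to five compound concentrations for 48 h, and endpoints were estimated by linear interpolation. GI50 is the concentration that inhibits growth by half. At the TGI there is no net growth.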 Some results are limits rather than exact numbers.

Test systems include OVCAR-5 ovarian; ACHN renal; OVCAR-4 ovarian; DMS 273 small cell lung; SK-MEL-28 melanoma; HCC-2998 colon; XF 498 CNS; SN12C renal; NCI/ADR-RES ovarian; PC-3 prostate.
Common to all, as to experiment: NCI anticancer screen, dose series, 48 h

Turning to `CC(=O)[CH-]C(C)=O.CC(=O)[CH-]C(C)=O.[O-]c1ccccc1.[O-]c1ccccc1.[Ti+4]`, the GI50 in the test on OVCAR-5 ovarian, in the test on ACHN renal, in the test on OVCAR-4 ovarian, in the test on DMS 273 small cell lung, in the test on SK-MEL-28 melanoma and in the test with HCC-2998 colon was above 100 µM in each case. Further, in the test with XF 498 CNS, the GI50 was above 100 µM. For the same compound, the TGI in the test on OVCAR-5 ovarian, in the test with ACHN renal, in the test with OVCAR-4 ovarian, in the test with DMS 273 small cell lung, with SK-MEL-28 melanoma and in the test on HCC-2998 colon was above 100 µM throughout. Moreover, the TGI in the test with XF 498 CNS is above 100 µM.
Regarding `Cc1ccccc1NC(=O)CSc1nnc(-c2ccc(N=Cc3ccc(Cl)cc3)cc2)o1`, the TGI in the test on SN12C renal, in the test on ACHN renal, in the test with OVCAR-4 ovarian, in the test on DMS 273 small cell lung, in the test on SK-MEL-28 melanoma and with XF 498 CNS was above 100 µM throughout.
On to `O=C1NC(O)n2c(=O)[nH]c(=O)n21` (stereo unspecified), for which the TGI with OVCAR-5 ovarian, in the test on SN12C renal, with ACHN renal, with OVCAR-4 ovarian, in the test on DMS 273 small cell lung and in the test with SK-MEL-28 melanoma was above 100 µM in each case. Further, the TGI with HCC-2998 colon and in the test on XF 498 CNS was above 100 µM in each case.
On to `c1ccc2c(c1)[nH]c1c2nc2ccccn21`, for which the TGI with OVCAR-5 ovarian, in the test on SN12C renal, in the test on ACHN renal, in the test on OVCAR-4 ovarian, in the test with DMS 273 small cell lung and with SK-MEL-28 melanoma was above 100 µM throughout. The TGI with HCC-2998 colon and with XF 498 CNS was above 100 µM each time.
With `[N-]=[N+]=CC(=O)CCC(N)C(=O)O` (stereo unspecified), the TGI was above 186 µM in the test on OVCAR-5 ovarian; above 245 µM in the test on NCI/ADR-RES ovarian; 248 µM in the test on SN12C renal; above 250 µM in the test on ACHN renal; above 206 µM in the test with OVCAR-4 ovarian; above 250 µM in the test with DMS 273 small cell lung. Also, the TGI was above 250 µM with PC-3 prostate, 202 µM with SK-MEL-28 melanoma, above 250 µM with HCC-2998 colon and 230 µM with XF 498 CNS. The GI50 is 4.86 µM in the test with SN12C renal; 5.54 µM in the test with ACHN renal; 4.2 µM in the test on OVCAR-4 ovarian; 29.8 µM in the test with PC-3 prostate; 15.3 µM with SK-MEL-28 melanoma; 62.7 µM in the test on HCC-2998 colon.
As for `C[C@@H]1C[C@@H]([C@H](O)CC2CC(=O)NC(=O)C2)C(=O)[C@@H](C)C1`, the GI50 in the test on OVCAR-5 ovarian was 0.317 µM; in the test on NCI/ADR-RES ovarian, 0.358 µM; in the test on SN12C renal, 0.106 µM; in the test with ACHN renal it was 0.155 µM; in the test with OVCAR-4 ovarian, 0.299 µM; in the test on PC-3 prostate it was 0.243 µM. The figures for the GI50 in the test with SK-MEL-28 melanoma and in the test on HCC-2998 colon were 0.249 µM and 0.325 µM, respectively. Also, the TGI in the test with OVCAR-5 ovarian is 14.6 µM and 4.02 µM; with NCI/ADR-RES ovarian, 9.16 µM; in the test on SN12C renal it was 7.38 µM and 0.793 µM; in the test on OVCAR-4 ovarian it was 4.97 µM and 1.2 µM; in the test with PC-3 prostate it was 4.51 µM; with SK-MEL-28 melanoma it was 2.01 µM and 1.34 µM. Also, the TGI was 7.93 µM and 3.63 µM with HCC-2998 colon; 0.504 µM in the test on XF 498 CNS.
As to `O=c1c2cccnc2ncn1CCCN1CCCCC1`, the TGI in the test on OVCAR-5 ovarian, with SN12C renal, in the test on ACHN renal, in the test with OVCAR-4 ovarian, with DMS 273 small cell lung and in the test on SK-MEL-28 melanoma was above 100 µM each time. The compound also had a TGI with XF 498 CNS above 100 µM.
`O=C1CC23CCCCCCCCCCC2(C1)CC(=O)C3` (stereo unspecified): the TGI was 72.1 µM with OVCAR-5 ovarian; 38.6 µM in the test with SN12C renal; above 100 µM in the test on ACHN renal; 52.5 µM in the test with DMS 273 small cell lung; above 100 µM with SK-MEL-28 melanoma; above 100 µM with HCC-2998 colon. Also, in the test on XF 498 CNS, the TGI was found to be 49.2 µM.
Take `COC1(OC)C2(Cl)C3=CCCC=C3C1(Cl)C(Cl)=C2Cl`: the TGI in the test on OVCAR-5 ovarian was 83.9 µM; in the test on SN12C renal it was above 100 µM; in the test with ACHN renal it was above 100 µM; in the test on OVCAR-4 ovarian it was above 100 µM; in the test with DMS 273 small cell lung, 39.8 µM; in the test on SK-MEL-28 melanoma, above 100 µM. Moreover, the TGI in the test on HCC-2998 colon was above 100 µM; with XF 498 CNS, 50.2 µM.
As for `Cc1cccc(C)c1NC(=O)C(=O)Cc1nc2ccccc2s1`, the TGI with OVCAR-5 ovarian, with SN12C renal, with ACHN renal, in the test with OVCAR-4 ovarian, in the test on DMS 273 small cell lung and with SK-MEL-28 melanoma was above 100 µM each time. For the same compound, the TGI in the test on HCC-2998 colon and with XF 498 CNS was above 100 µM each time.
For the compound `N#C/C(=C\c1ccc2[nH]ccc2c1)C(=O)NCCCCNC(=O)/C(C#N)=C/c1ccc2[nH]ccc2c1`, the TGI in the test on OVCAR-5 ovarian was above 31.6 µM; in the test on NCI/ADR-RES ovarian, above 10 µM; with SN12C renal it was above 31.6 µM; in the test on ACHN renal, above 31.6 µM; in the test on OVCAR-4 ovarian it was above 31.6 µM; in the test on DMS 273 small cell lung, above 100 µM. Besides, the TGI is above 10 µM in the test with PC-3 prostate, above 31.6 µM in the test with SK-MEL-28 melanoma, above 31.6 µM in the test on HCC-2998 colon and above 100 µM in the test with XF 498 CNS.
In the case of `Cn1c(=O)oc2cc(C3CCC(=O)N3Cc3csc(-c4ccccc4)n3)ccc21` (stereo unspecified), the TGI with OVCAR-5 ovarian, in the test with SN12C renal, in the test with ACHN renal, in the test with OVCAR-4 ovarian, in the test on DMS 273 small cell lung and in the test with SK-MEL-28 melanoma was above 100 µM throughout. Besides, the TGI in the test on HCC-2998 colon and in the test on XF 498 CNS was above 100 µM throughout.
As for `Cc1cc(Cl)ccc1NC(=O)CCCC(=O)C1C/C(=N/O)CC/C1=N\O` (stereo unspecified), the TGI in the test with OVCAR-5 ovarian, in the test with SN12C renal, in the test on ACHN renal, with OVCAR-4 ovarian, in the test on DMS 273 small cell lung and in the test on SK-MEL-28 melanoma was above 100 µM throughout. In addition, the TGI in the test on HCC-2998 colon and with XF 498 CNS was above 100 µM in each case.
As to `CN1CCCC2[C@@H]3CCC4c5nonc5CC[C@]4(C)C3CC[C@@]21C` (stereo partly specified), the TGI in the test on OVCAR-5 ovarian, in the test with SN12C renal, with ACHN renal, in the test on OVCAR-4 ovarian, in the test on DMS 273 small cell lung and in the test with SK-MEL-28 melanoma was above 100 µM throughout. The TGI with XF 498 CNS came to 81.8 µM.
For `O=c1[nH]ccc(CNC23CC4CC(CC(C4)C2)C3)c1O`, the TGI in the test with OVCAR-5 ovarian, in the test on SN12C renal, in the test with ACHN renal, in the test on OVCAR-4 ovarian, with DMS 273 small cell lung and with HCC-2998 colon was above 100 µM throughout. This compound also showed a TGI in the test on XF 498 CNS above 100 µM.
`Cc1cc2c(c(C(=O)O)c1C)-c1cccc(Cl)c1C2=O`: the TGI in the test on OVCAR-5 ovarian, with SN12C renal, in the test on ACHN renal, with OVCAR-4 ovarian, in the test with DMS 273 small cell lung and with SK-MEL-28 melanoma was above 100 µM each time. Moreover, the TGI in the test on HCC-2998 colon and with XF 498 CNS was above 100 µM each time.
